Measurements published in article PMC7838546, “A Thermostable, Modified Cathelicidin-Derived Peptide With Enhanced Membrane-Active Activity Against Salmonella enterica serovar Typhimurium” (Frontiers in Microbiology, 2021).
Read-outs that look alike come from different tables or passages of the source. Ends that are not written are not given here.

Legend:
[1] = test system: S. enterica serovar Typhimurium H1-011 (clinical isolate); format: cell-based, Salmonella enterica serovar Typhimurium; details: H1-011, stool, resistant Amp, T, intermediate Amc, Ctx, Cp, NA; for MIC: broth microdilution, 37°C, 24 h
Method: (§1) Salmonella enterica serovar Typhimurium ATCC 13311, 24 drug-resistant foodborne and eleven drug-resistant human borne S. enterica serovar Typhimurium and 4,5,12:i:- isolates (Table 1) were used as test microorganisms. They were previously isolated for molecular characterization in 2014 and kindly provided by Dr. Soraya Chaturongakul (Mahidol University, Thailand) ([Huoy et al., 2014]). All bacteria were cultured in Tryptic Soy Broth (TSB) and incubated at 37°C for 18 h. Mueller Hinton Broth (MHB) was then used to wash and rinse the bacteria. The bacterial suspensions were then diluted to obtain concentrations of 10^7 CFU/ml for inoculations.
(§2) A modified version of the National Committee for Clinical Laboratory Standards (NCCLS) broth microdilution method ([Steinberg et al., 1997]) was used to determine the minimum inhibitory concentrations (MICs) of peptide and compared to that of nisin. Fifty microliters of two-fold serial dilutions of each peptide [0.98–250 μg/ml in 0.01% (v/v) acetic acid and 0.2% (w/v) bovine serum albumin (BSA, Sigma-Aldrich, MO, United States)], were incubated with 50 μl of bacterial suspensions (approximately 10^7 CFU/ml) at 37°C for 24 h in a shaking incubator. MICs were taken as the lowest concentration of peptide at which growth was inhibited as observed by visual inspection. Bacterial cultures without peptides and uncultured broth were used as positive and negative controls, respectively. Minimal bactericidal concentrations (MBCs) were determined using a colony count assay ([Clinical Laboratory Standards Institute [CLSI], 2015]). Fifty microliters of samples from each non-turbid well in the MIC determination experiment was plated on Mueller Hinton Agar (MHA) and colonies were observed after overnight incubation at 37°C. MBCs were designated as the least concentration showing no colony growth on the plate. All of experiments were performed in triplicate.

[2] = test system: S. enterica serovar Typhimurium ATCC 13311; format: cell-based, Salmonella enterica serovar Typhimurium
Method: In order to induce bacterial resistance to P7, S. enterica serovar Typhimurium ATCC 13311 were cultured for 10 serial passages in MHB in the presence of P7 in a series of concentrations ranging from 0.98 to 250 μg/ml ([Veldhuizen et al., 2013]). In each passage, 50 μl of bacterial samples at sublethal concentrations (the highest peptide concentration displaying 80% growth compared with growth in MHB) were used to determine MIC values by a broth microdilution assay.

[3] = test system: S. enterica serovar 4,5,12:i:- H1-025 (clinical isolate); assay: MIC/MBC, broth microdilution and colony count; format: cell-based, Salmonella enterica serovar 4,5,12:i:-; details: H1-025, urine, resistant Amp, Ctx, C, T, intermediate Cp, NA, SxT, broth microdilution, 37°C, 24 h
Method: as §1, §2

[4] = test system: S. enterica serovar 4,5,12:i:- H1-027 (clinical isolate); assay: MIC/MBC, broth microdilution and colony count; format: cell-based, Salmonella enterica serovar 4,5,12:i:-; details: H1-027, stool, resistant Amp, T, broth microdilution, 37°C, 24 h
Method: as §1, §2

[5] = test system: S. enterica serovar 4,5,12:i:- H2-046 (foodborne isolate); assay: MIC/MBC, broth microdilution and colony count; format: cell-based, Salmonella enterica serovar 4,5,12:i:-; details: H2-046, pork heart, resistant Amp, T, intermediate Cp, broth microdilution, 37°C, 24 h
Method: as §1, §2

[6] = test system: S. enterica serovar 4,5,12:i:- H2-047 (foodborne isolate); assay: MIC/MBC, broth microdilution and colony count; format: cell-based, Salmonella enterica serovar 4,5,12:i:-; details: H2-047, pork liver, resistant Amp, intermediate Cp, broth microdilution, 37°C, 24 h
Method: as §1, §2

[7] = test system: S. enterica serovar 4,5,12:i:- H2-050 (foodborne isolate); assay: MIC/MBC, broth microdilution and colony count; format: cell-based, Salmonella enterica serovar 4,5,12:i:-; details: H2-050, pork heart, resistant Amp, broth microdilution, 37°C, 24 h
Method: as §1, §2

[8] = test system: S. enterica serovar 4,5,12:i:- H2-055 (foodborne isolate); assay: MIC/MBC, broth microdilution and colony count; format: cell-based, Salmonella enterica serovar 4,5,12:i:-; details: H2-055, pork liver, resistant Amp, T, broth microdilution, 37°C, 24 h
Method: as §1, §2

[9] = test system: S. enterica serovar 4,5,12:i:- H2-062 (foodborne isolate); assay: MIC/MBC, broth microdilution and colony count; format: cell-based, Salmonella enterica serovar 4,5,12:i:-; details: H2-062, pork intestine, resistant Amp, T, intermediate Cp, broth microdilution, 37°C, 24 h
Method: as §1, §2

[10] = test system: S. enterica serovar 4,5,12:i:- H2-065 (foodborne isolate); assay: MIC/MBC, broth microdilution and colony count; format: cell-based, Salmonella enterica serovar 4,5,12:i:-; details: H2-065, pork liver, resistant Amp, T, broth microdilution, 37°C, 24 h
Method: as §1, §2

[11] = test system: S. enterica serovar 4,5,12:i:- H2-071 (foodborne isolate); assay: MIC/MBC, broth microdilution and colony count; format: cell-based, Salmonella enterica serovar 4,5,12:i:-; details: H2-071, pork heart, resistant Amp, Ctx, C, T, SxT, intermediate Cp, broth microdilution, 37°C, 24 h
Method: as §1, §2

[12] = test system: S. enterica serovar 4,5,12:i:- H2-072 (foodborne isolate); assay: MIC/MBC, broth microdilution and colony count; format: cell-based, Salmonella enterica serovar 4,5,12:i:-; details: H2-072, pork intestine, resistant Amp, Ctx, C, T, SxT, intermediate Cp, broth microdilution, 37°C, 24 h
Method: as §1, §2

[13] = test system: S. enterica serovar 4,5,12:i:- H2-082 (foodborne isolate); assay: MIC/MBC, broth microdilution and colony count; format: cell-based, Salmonella enterica serovar 4,5,12:i:-; details: H2-082, pork intestine, resistant Amp, T, broth microdilution, 37°C, 24 h
Method: as §1, §2

[14] = test system: S. enterica serovar 4,5,12:i:- H2-089 (foodborne isolate); assay: MIC/MBC, broth microdilution and colony count; format: cell-based, Salmonella enterica serovar 4,5,12:i:-; details: H2-089, pork intestine, resistant Amp, broth microdilution, 37°C, 24 h
Method: as §1, §2

[15] = test system: S. enterica serovar 4,5,12:i:- H2-090 (foodborne isolate); assay: MIC/MBC, broth microdilution and colony count; format: cell-based, Salmonella enterica serovar 4,5,12:i:-; details: H2-090, pork intestine, resistant Amp, T, broth microdilution, 37°C, 24 h
Method: as §1, §2

Question: Which MIC [1] does the source give for KIAKRIWKILRR-NH2 [P7] here?
Answer: 7.81 (7.81) μg/ml

Question: And the MBC ([1]; colony count on MHA)?
Answer: 7.81 (7.81) μg/ml

Question: What about the MIC ([2]; serial passage 1) of the same substance?
Answer: 3.91 µg/mL

Question: And the MIC ([2]; serial passage 2)?
Answer: 3.91 µg/mL

Question: What about the MIC ([2]; serial passage 3) of the same substance?
Answer: 3.91 µg/mL

Question: What about the MIC ([2]; serial passage 4) of the same substance?
Answer: 3.91 µg/mL

Question: What about the MIC ([2]; serial passage 5) of the same substance?
Answer: 3.91 µg/mL

Question: And the MIC ([2]; serial passage 6)?
Answer: 3.91 µg/mL

Question: And the MIC ([2]; serial passage 7)?
Answer: 3.91 µg/mL

Question: What about the MIC ([2]; serial passage 8) of the same substance?
Answer: 3.91 µg/mL

Question: And the MIC ([2]; serial passage 9)?
Answer: 3.91 µg/mL

Question: And the MIC ([2]; serial passage 10)?
Answer: 3.91 µg/mL

Question: What about the MIC ([2]; through all bacterial passages (10 serial passages)) of the same substance?
Answer: 3.91 µg/mL

Question: What does the source list for “Nisin: authorized food preservative peptide, binds lipid II and forms membrane pores (ITSISLCTPGCKTGALMGCNMKTATCHCSIHVSK; cysteine pairing not given here; also: lantibiotic nisin-A; UniProt P13068 24-57, looked up)”?
Answer: MIC [3]: >1000 µg/mL; MIC [4]: >1000 µg/mL; MIC [5]: >1000 µg/mL; MIC [6]: >1000 µg/mL; MIC [7]: >1000 µg/mL; MIC [8]: >1000 µg/mL; MIC [9]: >1000 µg/mL; MIC [10]: >1000 µg/mL; MIC [11]: >1000 µg/mL; MIC [12]: >1000 µg/mL; MIC [13]: >1000 µg/mL; MIC [14]: >1000 µg/mL; MIC [15]: >1000 µg/mL; MIC [1]: >1000 µg/mL
